# Measurements reported in US7160708B2, “Fatty alcohol oxidase genes and proteins from Candida tropicalis and methods relating thereto” (Cognis Corporation, priority 2002, dated 2007).
# How the values were obtained:
# FAO1 or FAO2 = assay: Alcohols used for substrate specificity testing, activity detected with either enzyme; format: biochemical, Candida tropicalis; parameters: key: X: Activity detected using this substrate with either FAO1 or FAO2; settings: final alcohol concentration 200 μM
# Excerpt: The assay procedure used is a modification of an assay used by Kemp et al (1). The assay is a two-enzyme coupled reaction. Dodecanol was used as the substrate for the FAO, which oxidizes the dodecanol to dodecanal. At the same time it reduces molecular oxygen to hydrogen peroxide. A second enzyme in the reaction mixture, peroxidase derived from horseradish (HRP), uses electrons obtained by oxidizing hydrogen peroxide to […] 2,2′-azino-bis(3-ethylbenzthiazoline-6-sulfonic acid) (ABTS) in the reaction mixture. […] absorbs strongly at 405 nm. The quality of HRP is important, since it has been observed that commercially obtained preparations vary in quality. It is necessary, therefore, to obtain preparations of highest purity. The HRP (Sigma #P8415) was made at a concentration of 2 mg/ml (≈250 units/mg) in 50 mM potassium phosphate buffer, pH 7.6.
# After adding the extract, the activity was generally read at 405 nm for one minute at room temperature. The amount of extract that was added to the reaction mixture was varied so that the activity fell within the range of 0.2 to 1.0 ΔA^405 nm/min. Alcohol oxidase activity was reported as specific activity units/mg protein (1 unit=μmole substrate oxidized/min). An extinction coefficient at 405 nm of 18.4 was used for ABTS and was equivalent to 0.5 mM oxidized substrate. In certain substrate-specificity experiments, 200 mM HEPES buffer, pH 7.6, containing 0.5% Triton X100 was used in place of the 200 mM HEPES buffer in the reaction mixture described above. The detergent aided in solubilizing some of the more water-insoluble substrates tested.
# FAO1, FAO2a and FAO2a′ were tested for their activity with various alcohols. The alcohols shown in Table 5 were prepared in 20 mM stock solutions in acetone. Alcohols showing activity with either FAO1 or FAO2a are indicated. The final concentration of the alcohol used in the substrate specificity experiment was 200 μM. These same alcohols were used to determine the Km and Vmax of FAO1, FAO2a, and FAO2a′. […] There was a big drop in activity in going from a C8 alcohol to a C6 alcohol with FAO1, FAO2a, and FAO2a′. FAO2a and FAO2a′ oxidize 2-octanols fairly well; however no activity was detected with FAO1. In contrast, FAO1 oxidizes ω-hydroxy fatty acids well, but no activity for ω-hydroxy fatty acids was measured with FAO2a and FAO2a′ (FIG. 6). […] Although the substrate specificity of FAO2b was not performed, due to the close homology with FAO2a, it is likely to be very similar.
# [1] = tested on: FAO from C. tropicalis (ATCC 20336); settings: cited from earlier work; for Oxidation by purified C. tropicalis FAO: purified enzyme (ref. 3); for Oxidation by C. tropicalis FAO (Kemp et al. 1988): cells grown on hexadecane
# fatty alcohol oxidase = assay: FAO activity of extracts made from fermentor samples induced with HOSFFA; format: biochemical, Candida tropicalis; settings: data not shown
# Excerpt: (§1) The assay is a two-enzyme coupled reaction. […] ABTS absorbs strongly at 405 nm.
# FAO2a = FAO2a (Candida tropicalis, UniProt Q6QIR5, S177L); format: biochemical; settings: for Activity of FAO2a with the alcohol (substrate specificity): 200 μM alcohol, relative to dodecanol set at 100%, FIG. 4-6; for Km FAO2a: pH 7.6, HEPES/Triton X-100 buffer, enzyme constant, alcohol concentration varied
# Excerpt: as §1
# FAO2a′ = FAO2a′ (Candida tropicalis, UniProt Q6QIR5); assay: FAO enzyme assay (HRP/ABTS coupled) with FAO2a′ (CTG-codon-altered FAO2a) expressed in E. coli: substrate specificity and Km; settings: 200 μM alcohol; relative to dodecanol set at 100%; FIG. 4-6
# Experimental: The assay is a two-enzyme coupled reaction. […] At the same time it reduces molecular oxygen to hydrogen peroxide. A second enzyme in the reaction mixture, peroxidase derived from horseradish (HRP), uses electrons obtained by oxidizing hydrogen peroxide to reduce 2,2′-azino-bis(3-ethylbenzthiazoline-6-sulfonic acid) (ABTS) in the reaction mixture. Reduced ABTS absorbs strongly at 405 nm. […] The HRP (Sigma #P8415) was made at a concentration of 2 mg/ml (≈250 units/mg) in 50 mM potassium phosphate buffer, pH 7.6.
# Initially, only the properties of the enzyme derived from the native sequence of FAO2a were determined. […] The properties of both FAO2a and FAO2a′ were determined as described in the following examples.
# FAO1, FAO2a and FAO2a′ were tested for their activity with various alcohols. The alcohols shown in Table 5 were prepared in 20 mM stock solutions in acetone. […] The final concentration of the alcohol used in the substrate specificity experiment was 200 μM. These same alcohols were used to determine the Km and Vmax of FAO1, FAO2a, and FAO2a′.
# (§2) In this case, all reactions contained the same amount of acetone (20 μl/ml).
# FAO from C. maltosa = settings: cited from earlier work
# FAO1 = FAO1 (Candida tropicalis, UniProt Q6QIR6); assay: FAO enzyme assay (HRP/ABTS coupled) with FAO1 expressed in E. coli: substrate specificity and Km; settings: for Activity of FAO1 with the alcohol (substrate specificity): 200 μM alcohol, relative to dodecanol set at 100%, FIG. 4-6
# Excerpt: as §1
# OCCCCCCCCCCCCCCCCO = assay: purified protein, by the assay type
# OCCCCCCCCCCO = assay: purified protein, by the assay type
# CCCCCCCCCCCCO = assay: purified protein, by the assay type
# C=CCCCCCCCCCO = assay: purified protein, by the assay type
# CCCCCCCCO = assay: purified protein, by the assay type
# CCCCCCCCCCO = assay: purified protein, by the assay type
# CCCCCCCCCCCCCCO = assay: purified protein, by the assay type
# O=C(O)CCCCCCCCCCCCCCCO = assay: purified protein, by the assay type; settings: other: pH 7.6, HEPES/Triton X-100 buffer, enzyme constant, alcohol concentration varied
# Excerpt: The assay is a two-enzyme coupled reaction. […] At the same time it reduces molecular oxygen to hydrogen peroxide. A second enzyme in the reaction mixture, peroxidase derived from horseradish (HRP), uses electrons obtained by oxidizing hydrogen peroxide to reduce 2,2′-azino-bis(3-ethylbenzthiazoline-6-sulfonic acid) (ABTS) in the reaction mixture. Reduced ABTS absorbs strongly at 405 nm. The quality of HRP is important, since it has been observed that commercially obtained preparations vary in quality. It is necessary, therefore, to obtain preparations of highest purity. The HRP (Sigma #P8415) was made at a concentration of 2 mg/ml (≈250 units/mg) in 50 mM potassium phosphate buffer, pH 7.6.
# FAO1, FAO2a and FAO2a′ were tested for their activity with various alcohols. […] The final concentration of the alcohol used in the substrate specificity experiment was 200 μM. These same alcohols were used to determine the Km and Vmax of FAO1, FAO2a, and FAO2a′.
# as §2
# CCCCCCCCCCCCCCCCO = assay: purified protein, by the assay type
# CCCCCCCCC(C)O = assay: purified protein, by the assay type
# CCCCCCCCCCC(O)CO = assay: purified protein, by the assay type
# CCCCCCCCCC(C)O = assay: purified protein, by the assay type
# CCCCCCCCCCCCCCC(C)O = assay: purified protein, by the assay type
# CCCCCCCCCCC(C)O = assay: purified protein, by the assay type
# [2] = other: pH 7.6, HEPES/Triton X-100 buffer, enzyme constant, alcohol concentration varied
# [3] = other: 0.1 M HEPES, pH 7.6, substrate stocks in acetone (20 μl/ml)
# Sequence of FAO1 (Q6QIR6 entry or part of it): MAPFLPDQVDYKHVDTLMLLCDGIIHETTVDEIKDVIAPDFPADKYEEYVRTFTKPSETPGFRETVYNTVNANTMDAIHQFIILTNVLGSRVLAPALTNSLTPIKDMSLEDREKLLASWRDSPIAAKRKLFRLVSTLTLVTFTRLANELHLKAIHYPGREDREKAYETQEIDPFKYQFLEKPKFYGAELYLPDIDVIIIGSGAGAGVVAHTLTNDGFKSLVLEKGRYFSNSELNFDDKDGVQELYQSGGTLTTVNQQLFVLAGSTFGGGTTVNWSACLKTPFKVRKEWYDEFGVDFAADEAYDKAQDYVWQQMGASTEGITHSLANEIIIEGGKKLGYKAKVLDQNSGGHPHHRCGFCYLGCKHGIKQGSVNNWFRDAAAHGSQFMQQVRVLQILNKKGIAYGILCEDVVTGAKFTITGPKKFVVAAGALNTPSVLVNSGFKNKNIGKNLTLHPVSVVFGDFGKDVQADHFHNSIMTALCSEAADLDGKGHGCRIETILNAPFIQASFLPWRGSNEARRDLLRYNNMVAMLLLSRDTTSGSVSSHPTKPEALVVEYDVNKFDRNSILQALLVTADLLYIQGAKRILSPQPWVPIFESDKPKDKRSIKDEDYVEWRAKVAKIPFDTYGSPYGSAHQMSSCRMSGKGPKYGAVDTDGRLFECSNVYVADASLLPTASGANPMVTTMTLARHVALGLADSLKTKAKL
# Sequence of FAO2a (Q6QIR5 whole entry S177L): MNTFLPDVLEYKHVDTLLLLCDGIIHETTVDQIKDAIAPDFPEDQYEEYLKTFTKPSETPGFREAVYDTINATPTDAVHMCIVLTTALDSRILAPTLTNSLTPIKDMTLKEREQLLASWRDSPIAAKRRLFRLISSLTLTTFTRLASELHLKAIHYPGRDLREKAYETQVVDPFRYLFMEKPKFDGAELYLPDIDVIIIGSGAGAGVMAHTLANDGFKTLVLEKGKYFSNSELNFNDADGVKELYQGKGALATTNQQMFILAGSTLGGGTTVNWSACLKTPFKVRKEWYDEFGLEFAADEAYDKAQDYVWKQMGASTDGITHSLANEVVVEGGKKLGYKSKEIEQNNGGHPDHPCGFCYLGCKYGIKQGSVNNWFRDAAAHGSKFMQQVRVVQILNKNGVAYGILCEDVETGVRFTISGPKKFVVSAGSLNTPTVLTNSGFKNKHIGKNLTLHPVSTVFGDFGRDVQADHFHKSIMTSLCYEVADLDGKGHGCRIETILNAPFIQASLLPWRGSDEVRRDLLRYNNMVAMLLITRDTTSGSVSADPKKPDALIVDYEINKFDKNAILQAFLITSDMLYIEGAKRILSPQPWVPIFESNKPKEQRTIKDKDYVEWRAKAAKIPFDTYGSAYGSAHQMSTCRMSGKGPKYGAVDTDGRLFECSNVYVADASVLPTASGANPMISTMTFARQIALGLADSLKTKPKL
# Sequence of FAO2a′ (Q6QIR5 entry or part of it): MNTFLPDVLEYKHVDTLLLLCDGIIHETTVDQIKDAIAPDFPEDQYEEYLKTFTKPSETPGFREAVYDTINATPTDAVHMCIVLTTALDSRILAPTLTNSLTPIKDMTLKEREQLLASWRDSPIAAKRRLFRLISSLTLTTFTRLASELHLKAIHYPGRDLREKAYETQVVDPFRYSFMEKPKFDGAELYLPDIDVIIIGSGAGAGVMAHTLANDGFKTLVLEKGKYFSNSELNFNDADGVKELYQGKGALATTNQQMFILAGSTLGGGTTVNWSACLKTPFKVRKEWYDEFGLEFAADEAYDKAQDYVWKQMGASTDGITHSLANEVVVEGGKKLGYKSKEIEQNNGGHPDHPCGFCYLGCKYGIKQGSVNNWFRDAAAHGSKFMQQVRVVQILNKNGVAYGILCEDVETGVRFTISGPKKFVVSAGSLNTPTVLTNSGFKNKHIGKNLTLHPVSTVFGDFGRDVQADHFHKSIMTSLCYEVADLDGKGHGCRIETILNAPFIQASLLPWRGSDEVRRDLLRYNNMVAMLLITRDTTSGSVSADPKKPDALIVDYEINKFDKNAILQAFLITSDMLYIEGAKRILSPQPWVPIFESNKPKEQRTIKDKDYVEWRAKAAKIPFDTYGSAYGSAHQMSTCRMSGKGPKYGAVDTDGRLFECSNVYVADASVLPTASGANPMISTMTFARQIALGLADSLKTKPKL
compound,measurement,setting,value
16-Hydroxydodecanoic acid,Activity Detected,FAO1 or FAO2,X
"CCCCCCCCCCC(O)CO (centres unmarked) [1,2-Dodecanediol]",Activity Detected,FAO1 or FAO2,X
"CCCCCCC(O)CO (centres unmarked) [1,2-Octanediol]",Activity Detected,FAO1 or FAO2,X
"OCCCCCCCCCCO [1,10-Decanediol]",Activity Detected,FAO1 or FAO2,X
"OCCCCCCCCCCCCCCCCO [1,16-Hexadecanediol]",Activity Detected,FAO1 or FAO2,X
CCCCCCCCC(C)O (centres unmarked) [2-Decanol],Activity Detected,FAO1 or FAO2,X
CCCCCCCCCCC(C)O (centres unmarked) [2-Dodecanol],Oxidation by purified C. tropicalis FAO,[1],additional activity
same,Activity Detected,FAO1 or FAO2,X
same,Activity of extracts from HOSFFA-induced fermentor samples with the alcohol,fatty alcohol oxidase,no activity
CCCCCCCCCCCCCCC(C)O (centres unmarked) [2-Hexadecanol],Activity Detected,FAO1 or FAO2,X
CCCCCCCCCC(C)O (centres unmarked) [2-Undecanol],Activity Detected,FAO1 or FAO2,X
O=C(O)CCCCCCCCCO [10-Hydroxydecanoic acid],Activity Detected,FAO1 or FAO2,X
C=CCCCCCCCCCO [10-Undecen-1-ol],Activity of FAO2a with the alcohol (substrate specificity),FAO2a,much better than FAO1
same,Activity of FAO2a′ with the alcohol (substrate specificity),FAO2a′,much better than FAO1
same,Activity Detected,FAO1 or FAO2,X
O=C(O)CCCCCCCCCCCO [12-Hydroxydodecanoic acid],Oxidation by C. tropicalis FAO (Kemp et al. 1988),[1],not
same,Oxidation by purified C. tropicalis FAO,[1],additional activity
same,Activity Detected,FAO1 or FAO2,X
"O=C(O)CCCCCCCCCCCCCCCO [16-hydroxy-hexadecanoic, 16-hydroxyhexadecanoic acid]",Oxidation by C. maltosa FAO,FAO from C. maltosa,fairly low rates of oxidation
same,Km FAO1,"FAO1; pH 7.6, HEPES/Triton X-100 buffer, enzyme constant, alcohol concentration varied",lowest Km value
same,Oxidation by C. tropicalis FAO (Kemp et al. 1988),[1],oxidize
same,Activity of extracts from HOSFFA-induced fermentor samples with the alcohol,fatty alcohol oxidase,good activity
CCCCCCCCCCO [Decanol],Activity Detected,FAO1 or FAO2,X
CCCCCCCCCCCCO [Dodecanol],Activity of FAO2a with the alcohol (substrate specificity),FAO2a,preferred 1-dodecanol above all other 1-alkanols
same,Km FAO2a,FAO2a,lowest Km values
same,Oxidation by C. tropicalis FAO (Kemp et al. 1988),[1],maximal activity
same,Activity of FAO2a′ with the alcohol (substrate specificity),FAO2a′,preferred 1-dodecanol above all other 1-alkanols
same,Activity Detected,FAO1 or FAO2,X
CCCCCCCCCCCCCCCCO [Hexadecanol],Activity Detected,FAO1 or FAO2,X
CCCCCCO [Hexanol],Activity Detected,FAO1 or FAO2,X
CCCCCCCCO [Octanol],Oxidation by C. maltosa FAO,FAO from C. maltosa,highest activity
same,Activity of FAO1 with the alcohol (substrate specificity),FAO1,preferred 1-octanol as substrate
same,Activity Detected,FAO1 or FAO2,X
CCCCCCCCCCCCCCO [Tetradecanol],Km FAO2a,FAO2a,lowest Km values
same,Activity of FAO1 with the alcohol (substrate specificity),FAO1,the preferred longer-chain alcohol
same,Activity Detected,FAO1 or FAO2,X
FAO1 (Candida tropicalis),Km,OCCCCCCCCCCCCCCCCO; [2],10.3 μM μM
same,Km,OCCCCCCCCCCO; [2],67.0 μM μM
same,Km,CCCCCCCCCCCCO; [2],14.9 μM μM
same,Km,C=CCCCCCCCCCO; [2],9.9 μM μM
same,Km,CCCCCCCCO; [2],41.0 μM μM
same,Km,CCCCCCCCCCO; [2],15.1 μM μM
same,Km,CCCCCCCCCCCCCCO; [2],28.1 μM μM
same,Km,O=C(O)CCCCCCCCCCCCCCCO,7.4 μM μM
same,Km,CCCCCCCCCCCCCCCCO; [2],11.9 μM μM
FAO2a (Candida tropicalis; S177L),Km,CCCCCCCCC(C)O; [2],934 µM
same,Km,CCCCCCCCCCC(O)CO; [2],998 µM
same,Km,OCCCCCCCCCCCCCCCCO; [2],37.3 µM
same,Km,OCCCCCCCCCCO; [2],425 µM
same,Km,CCCCCCCCCC(C)O; [2],141 µM
same,Km,CCCCCCCCCCCCO; [2],2.5 µM
same,Km,C=CCCCCCCCCCO; [2],45 µM
same,Km,CCCCCCCCO; [2],503 µM
same,Km,CCCCCCCCCCCCCCC(C)O; [2],350 µM
same,Km,CCCCCCCCCCC(C)O; [2],41.3 µM
same,Km,CCCCCCCCCCO; [2],74 µM
same,Km,CCCCCCCCCCCCCCO; [2],4.6 µM
same,Km,CCCCCCCCCCCCCCCCO; [2],56 µM
FAO2a′ (Candida tropicalis),Km,CCCCCCCCC(C)O; [3],1090 µM
same,Km,CCCCCCCCCCC(O)CO; [3],928 µM
same,Km,OCCCCCCCCCCCCCCCCO; [3],16.3 µM
same,Km,OCCCCCCCCCCO; [3],1607 µM
same,Km,CCCCCCCCCC(C)O; [3],162 µM
same,Km,CCCCCCCCCCCCO; [3],4.4 µM
same,Km,C=CCCCCCCCCCO; [3],36.1 µM
same,Km,CCCCCCCCO; [3],654 µM
same,Km,CCCCCCCCCCCCCCC(C)O; [3],720 µM
same,Km,CCCCCCCCCCC(C)O; [3],75.3 µM
same,Km,CCCCCCCCCCO; [3],69.6 µM
same,Km,CCCCCCCCCCCCCCO; [3],2.4 µM
same,Km,CCCCCCCCCCCCCCCCO; [3],85 µM
